Where “and” joins values, the source holds several entries; their conditions need not be identical. Equal entries are not always repeated. Where two headings read alike, the source gives them in different places. Marks after values point to notes of the source that are not given here.
Columns and labels:
[1] = test system: blood-stage Plasmodium yoelii; test: Modified 4-day suppression test in mice; format: in vivo; details: 4-day Peters Test
P. yoelii = test: Single dose cure of patent infection in mice; format: in vivo; details: dose required to clear patent infection without recrudescence for 30 days post-infection, PEG-400
[2] = test system: luciferase-transfected P. berghei sporozoites; format: in vivo, C57BL/6 albino mice; details: 24 hours prior to sporozoite inoculation
HepG2 cells = test: Mitochondrial toxicity, CellTiter-Glo ATP in galactose medium; format: cell-based, human; details: 72 hour incubation
[3] = biological target: T1, P. falciparum cytochrome bc1 (Plasmodium falciparum, UniProt Q02768); details: read-out: P. falciparum cytochrome bc1 EC50, cited from earlier work
T1 sequence (Q02768 1-376): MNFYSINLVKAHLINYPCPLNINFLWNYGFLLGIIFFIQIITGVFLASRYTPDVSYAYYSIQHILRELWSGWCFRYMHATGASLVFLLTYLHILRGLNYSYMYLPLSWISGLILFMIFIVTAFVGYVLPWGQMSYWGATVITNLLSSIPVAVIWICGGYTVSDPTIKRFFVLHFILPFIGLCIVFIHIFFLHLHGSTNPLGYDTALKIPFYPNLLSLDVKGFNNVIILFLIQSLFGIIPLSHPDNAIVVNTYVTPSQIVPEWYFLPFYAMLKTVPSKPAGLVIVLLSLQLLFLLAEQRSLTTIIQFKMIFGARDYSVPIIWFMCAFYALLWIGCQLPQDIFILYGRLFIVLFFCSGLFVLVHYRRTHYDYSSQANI

Human cytochrome bc1 [4] = biological target: T2, Human cytochrome bc1 (Homo sapiens, UniProt P00156); details: read-out: Human cytochrome bc1 EC50; ref Nilsen, et al. 14; cited from earlier work
[5] = test system: luciferase-transfected P. berghei sporozoites; details: dosed 1 hour prior to sporozoite inoculation; cited from earlier work
[6] = test system: P. falciparum D6 (drug sensitive); test: 72 h SYBR Green I assay, P. falciparum D6; format: cell-based; details: Plasmodium falciparum, D6, 72 h, read-out: In vitro activity vs. P. falciparum IC50, D6
[7] = test system: P. falciparum Dd2 (chloroquine resistant); test: 72 h SYBR Green I assay, P. falciparum Dd2; format: cell-based; details: Plasmodium falciparum, DD2, 72 h, read-out: In vitro activity vs. P. falciparum IC50, Dd2
[8] = test system: P. falciparum Tm90-C2B (Chloroquine and Atovaquone resistant); test: 72 h SYBR Green I assay, P. falciparum Tm90-C2B; format: cell-based; details: Plasmodium falciparum, TM90, 72 h, read-out: In vitro activity vs. P. falciparum IC50, C2B
in vitro = in vitro ADME; details: human, plasma
Human cytochrome bc1 [9] = biological target: T2, Human cytochrome bc1; test: Human cytochrome bc1 inhibition; format: biochemical; details: read-out: Human cytochrome bc1 EC50

**Q.** For `COc1cc2[nH]c(C)c(-c3ccc(Oc4ccc(OC(F)(F)F)cc4)cc3)c(=O)c2cc1Cl` [ELQ-300], which “In vivo efficacy (oral) P. yoelii NRD (non-recrudescence dose)” value [1] is on record?
**A.** The value was 1 mg/kg/day and 1.0 mg/kg/day.

**Q.** And the “In vivo efficacy (oral) P. yoelii Single Dose Cure” value (P. yoelii)?
**A.** The value was >20 ^e mg/kg/day.

**Q.** What about the “Mice with positive IVIS signal at 24 hours” value ([2]; 0.1 mg/kg oral) of the same compound?
**A.** The value was 2/5.

**Q.** What about the “Mice with positive IVIS signal at 48 hours” value ([2]; 0.1 mg/kg oral) of the same compound?
**A.** Its value is 5/5.

**Q.** And the “Mice with no parasitemia” value ([2]; 1 mg/kg oral)?
**A.** Its value is 4/5.

**Q.** What about the “Mice with no parasitemia” value ([2]; 3 mg/kg oral) of the same compound?
**A.** The value was 5/5.

**Q.** What about the “Parasite burden in the liver (IVIS)” value ([2]; 3 and 1 mg/kg oral) of the same compound?
**A.** Its value is “no detectable parasite burden in the liver”.

**Q.** What about the “Highest concentration without inhibition or alteration of ATP production” value (HepG2 cells) of the same compound?
**A.** The value was at least 25 µM.

**Q.** And the EC50 ([3]; ref Nilsen, et al. 14)?
**A.** Its EC50 is 0.56 nM.

**Q.** And the EC50 (Human cytochrome bc1 [4])?
**A.** The EC50 was over 10000 nM.

**Q.** What about the “Fully protective dose against liver stage infection” value [5] of the same compound?
**A.** Its value is at most 0.03 mg/kg.

**Q.** With `CCN(CC)CCCC(C)Nc1ccnc2cc(Cl)ccc12` (stereo not drawn) [CQ, chloroquine] as the compound, how does the IC50 [6] read?
**A.** Its IC50 is 10 nM.

**Q.** And the IC50 [7]?
**A.** The IC50 was 140 nM.

**Q.** And the IC50 [8]?
**A.** The IC50 was 98 nM.

**Q.** What about the “In vivo efficacy (oral) P. yoelii NRD (non-recrudescence dose)” value [1] of the same compound?
**A.** The value was over 64 mg/kg/day.

**Q.** And the “In vivo efficacy (oral) P. yoelii Single Dose Cure” value (P. yoelii)?
**A.** The value was over 64 mg/kg/day.

**Q.** With `COc1cc2nc(C)c(-c3ccc(Oc4ccc(OC(F)(F)F)cc4)cc3)c(OCOC(=O)OC(C)C)c2cc1Cl` [ELQ-330] as the compound, how does the “In vivo efficacy (oral) P. yoelii Single Dose Cure” value (P. yoelii) read?
**A.** Its value is 5.0 mg/kg/day.

**Q.** Which “In vivo efficacy (oral) P. yoelii Single Dose Cure” value (P. yoelii) does the source give for `CCOC(=O)OC(C)Oc1c(-c2ccc(Oc3ccc(OC(F)(F)F)cc3)cc2)c(C)nc2cc(OC)c(Cl)cc12` (stereo not drawn) [ELQ-387] here?
**A.** Its value is 5.0 mg/kg/day.

**Q.** For `CC(C)[N+](C)(CCOC(=O)C1c2ccccc2Oc2ccccc21)C(C)C` [Propantheline bromide], which half-life at 1 μM (in vitro) is on record?
**A.** Its half-life at 1 μM is 37.5 min.

**Q.** With `CCOC(=O)Oc1c(-c2ccc(Oc3ccc(OC(F)(F)F)cc3)cc2)c(C)nc2cc(OC)c(Cl)cc12` [ELQ-337] as the compound, how does the EC50 (Human cytochrome bc1 [9]) read?
**A.** Its EC50 is over 10000 nM.

**Q.** What about the EC50 ([3]; ref Miley, et al. 26) of the same compound?
**A.** The EC50 was 10000 nM.

Reference: PMC5947850 (ACS infectious diseases, 2017)
